Data: patent US7989495B2, “Compositions and methods for inhibiting NF-κB mediated tumorigenicity and adhesion dependent survival of cancer cells” (University of Utah Research Foundation, priority 2002, dated 2011)

How the values were obtained:
HCT-116 xenografts = assay: Subcutaneous colon cancer xenograft in athymic mice; format: in vivo
Procedure: DLD-1, HCT-116, and HT-29 cells were cultured for 6 days in soft agar in the presence of DMSO (control), 10 μM BAY 11-7082, or 10 μM BAY 11-7085. The data points represent the means of colony counts per field (20×) performed in 5 different regions of the culture dishes. The data shown represent a typical result of two separate experiments. FIGS. 2B,C, show athymic mice received subcutaneous injections of HT-29 (B) or HCT-116 (C) cells, followed by […] of BAY 11-7085 (dark bars) or DMSO (white bars) intraperitoneally twice weekly. The bars represent the 25-75% ranges of the tumor volumes and the horizontal lines in the bars are the medians. Using the Kruskal-Wallace statistical test to compare the median tumor volumes between BAY 11-7085 and DMSO yielded a p-value of 0.005 for HT-29 cells but >0.05 for HCT-116 cells.
HT-29 and HCT-116 cells were harvested in 0.25% trypsin-PBS-EDTA, washed once in media and PBS, and resuspended in PBS at 1 million cells per 200 μL. One million cells were injected either subcutaneously in the backs or intraperitoneally in 5 week old female nu/nu athymic mice (Charles River Labs). For the mice with subcutaneous tumors, the tumors were allowed to establish themselves for 10 days after which they were randomized to BAY 11-7085 or DMSO. For the mice with intraperitoneal tumors, the mice received DMSO or BAY 11-7085 (5 mg/kg) 24 hours before the cancer cells were injected intrapentoneally. All mice received BAY 11-7085 (5 mg/kg) or an equal volume of DMSO (˜200 μL) twice weekly for 21-32 days. Subcutaneous tumor sizes were determined by measuring the length and width with calipers. These studies were approved by the U. of Utah Institutional Review Board and Institutional Animal Care and Use Committee and performed in the Animal Resource Center. Mice were euthanized when they experienced a greater than 10% loss in body weight or if they appeared ill. Post-mortem examinations included sectioning of kidney, lung, and liver tissues which were stained with hematoxylin and eosin followed by examination for tissue toxicity/damage by an experienced mouse pathologist (E.J.E.) who was blinded to therapy.
(Wang et al., 1999) However, BAY 11-7082 or BAY 11-7085 alone inhibit colon cancer xenograft growth in athymic mice. HC-116, and HT-29 cell lines were used to generate subcutaneous tumors in athymic female mice. The mice were subsequently randomized to be treated with vehicle (DMSO) alone or BAY 11-7085 1 mg/kg twice weekly for 28 days.

[1] = test system: DLD-1 cells expressing IκB super-repressor; assay: Readhesion survival of cells transduced with adenovirus IκB super-repressor (crystal violet); format: cell-based; details: subapoptotic concentrations, readhesion 8 h
Procedure: (§1) The percentage of apoptotic cells was determined using the annexin V assay. The data points represent the averages of three experiments; bars, ±SE. E. DLD-1 and F. HT-29 cells were transduced with an adenovirus containing the IκB super-repressor construct. After 3 days, the cells were transiently suspended and allowed to readhere in the presence of subapoptotic concentrations of BAY 11-7085 or DMSO (vehicle) for 8 h. The data are expressed as fractions of cells surviving compared with the controls (no adenovirus) and were quantitatively determined by staining the remaining adherent cells with crystal violet.
(§2) DLD-1 and HT-29 cells that were approximately 60-70% confluent were transduced with Ad-IκB super-repressor by adding 1-50 μl of purified virus to the cells. […] In a parallel experiment, the transduced cells were resuspended and allowed to readhere in BAY 11-7085 for 8 h. The percentage of surviving (nonapoptotic) cells was determined using crystal violet staining.
(§3) The specific involvement of NF-κB in the apoptotic mechanism of BAY 11-7085 was examined specifically. […] The transduced DLD-1 and HT-29 cells were then transiently suspended and allowed to readhere at concentrations of BAY 11-7085 below the in vitro apoptotic threshold (>20 μM) for these cell lines. […] Therefore, inhibition of NF-κB is important to the apoptotic effect of BAY 11-7085 during colon cancer cell readhesion.

[2] = test system: HT-29 cells expressing IκB super-repressor; assay: as above; format: cell-based; details: subapoptotic concentrations, readhesion 8 h
Procedure: as §1, §2, §3

Structure (SMILES): CC(C)(C)c1ccc(S(=O)(=O)/C=C/C#N)cc1 [BAY 11-7085, (2E)-3-[4-(tertiarybutylphenyl)sulfonyl]-2-propenenitrile]
- p-value, Kruskal-Wallace test of median tumor volumes vs DMSO (HCT-116 xenografts; HCT-116, intraperitoneally twice weekly): > 0.05
- tumor volumes, treatment group compared with control group (HCT-116 xenografts; HCT-116 subcutaneous tumors, 1 mg/kg twice weekly for 28 days, vs DMSO): no statistically significant overall difference in the tumor volumes
- apoptotic threshold with IκB super-repressor expression compared with controls [1]: significantly lowered the apoptotic threshold
- apoptotic threshold with IκB super-repressor expression compared with controls [2]: significantly lowered the apoptotic threshold
